Tests used:
[1] = test system: radiation-induced oral mucositis, left buccal cheek pouch; conditions: Acute Radiation; published results in nearly identical models; cited from earlier work
[2] = test system: fractionated radiation and cisplatin induced oral mucositis, left buccal cheek pouch; conditions: published results in nearly identical models; cited from earlier work
[3] = test system: FaDu human head and neck cancer xenograft; assay: Tumor growth and response to therapy in FaDu xenograft; type: in vivo, nude mice (nu/nu)
Description: Ninety (90) male nude mice (nu/nu) were divided into nine (9) groups of ten […]) mice per group. To ensure that a sufficient number of tumor-bearing animals were available for this study, a total of 100 mice were inoculated s.c. in the flank with 1×10^6 FaDu cells. FaDu (HTB-43) human head and neck cancer cells were obtained from ATCC. These cells were grown in EMEM medium supplemented with 10% Fetal Calf Serum (FCS), 1% penicillin and streptomycin, and 2 mM L-Glutamine. […] The flask was incubated at 37° C. until cells detached. Cells were then sub-cultured at a ratio of 1:3. […] Tumors were measured once every two days with micro-calipers, and tumor volume was calculated as (length×width×width)/2. Where animals were euthanized for tumor volume exceeding the maximum permissible by IACUC rules (1500 mm^3) or tumor ulceration, the last measurement was carried forward in calculations of mean tumor volume.
All animals were weighed every day and their survival recorded, to assess possible differences in animal weight among treatment groups as an indication of possible toxicity resulting from the treatments. […] Any animals whose tumor grew to over 1500 mm^3 were also euthanized.
Further analysis of the tumor volume data was performed by calculating the mean area under the curve (AUC) for the tumor volume for each animal and comparing the groups using an ANOVA on ranks test. Due to the impact of animals euthanized for tumor ulceration or volume in excess of 1500 mm^3, this analysis was performed on data to Day 15 as well as on the full data set to Day 29.

[4] = groups receiving cisplatin chemotherapy 5 mg/kg (with vehicle or Compound X)

Structure (SMILES)	% reduction of animal days with OM scores ≥ 3 [1]	% reduction of animal days with OM scores ≥ 3 [2] [%]	mean weight gain ([3]; cisplatin 5 mg/kg plus vehicle, by Day 15) [%]	average gain of starting weight ([3]; cisplatin 5 mg/kg plus vehicle, by the end of the study) [%]	p, tumor volume AUC to Day 15 vs vehicle control group (ANOVA on ranks) ([3]; cisplatin plus vehicle)	mean tumor volume ([3]; cisplatin plus vehicle, Day 1) [mm^3]	mean tumor volume ([3]; cisplatin plus vehicle, Day 15) [mm^3]	mean tumor volume ([3]; cisplatin plus vehicle, end of the study) [mm^3]	animals euthanized for tumor size [3, 4] [%]	animals euthanized for tumor ulceration [3, 4] [%]	animals survived [3, 4] [%]
N[C@H](CCC(=O)N[C@@H](Cc1c[nH]c2ccccc12)C(=O)O)C(=O)O [SCV-07]	68.3%-77.6%	33.3	–	–	–	–	–	–	–	–	–
N.N.[Cl][Pt][Cl] [cisplatin, reference compound]	–	–	7.2	13.0	0.011	100	652	302	23	26.7	50

— US10206894B2, “Compounds for use in treatment of mucositis” (priority 2011, dated 2019)
